Results reported in ChEMBL document CHEMBL4651402, “Screening of ~5500 FDA-approved drugs and clinical candidates for anti-SARS-CoV-2 activity” (2021).
Where a name gives a salt, the structure may show the parent alone.

System: SARS-CoV-2
Assay: microbe, parasite or virus in culture
Settings: Severe acute respiratory syndrome coronavirus 2, Vero C1008, 48 h

C[C@]12CC[C@H]3C(=CCc4cc(O)ccc43)[C@@H]1CCC2=O [EQUILIN]
IC50: > 20 µM | IC50 (read-out: pIC50 (converted)): > 20 µM

CC(=O)CC(c1ccc([N+](=O)[O-])cc1)c1c(O)c2ccccc2oc1=O (stereo not given) [ACENOCOUMAROL]
IC50: > 20 µM | IC50 (read-out: pIC50 (converted)): > 20 µM

CCOC(=O)Nc1ccc2c(c1)N(C(=O)CN(C)C)c1ccccc1CC2 [TIRACIZINE]
IC50: > 20 µM | IC50 (read-out: pIC50 (converted)): > 20 µM

COc1cc2c(cc1O)CC1c3c(cc(O)c(OC)c3-2)CCN1C (stereo not given)
IC50: > 20 µM | IC50 (read-out: pIC50 (converted)): > 20 µM

CN1Cc2cc(C3=NNC(=O)CC3)ccc2NC1=O [PRINOXODAN]
IC50: > 20 µM | IC50 (read-out: pIC50 (converted)): > 20 µM

NCCS [CYSTEAMINE]
IC50: > 10 µM | IC50 (read-out: pIC50 (converted)): > 10 µM

CCCCCCCCCC1(C)OCC(COC(N)=O)O1 (stereo not given) [DIOXAMATE]
IC50: > 20 µM | IC50 (read-out: pIC50 (converted)): > 20 µM

CC(C)CCC[C@@H](C)[C@H]1CC[C@H]2[C@@H]3CC=C4CC(O)CC[C@]4(C)[C@H]3CC[C@]12C (stereo not given in full)
IC50: > 20 µM | IC50 (read-out: pIC50 (converted)): > 20 µM

O=C(O)CCC(=O)c1ccc(-c2ccccc2)cc1 [FENBUFEN]
IC50: > 20 µM | IC50 (read-out: pIC50 (converted)): > 20 µM

CSCC[C@H](NC(=O)[C@H](Cc1c[nH]c2ccccc12)NC(=O)CCNC(=O)OC(C)(C)C)C(=O)N[C@@H](CC(=O)O)C(=O)N[C@@H](Cc1ccccc1)C(N)=O [PENTAGASTRIN]
IC50: > 20 µM | IC50 (read-out: pIC50 (converted)): > 20 µM

CC(=O)O[C@H]1C[C@H](O[C@H]2[C@@H](O)C[C@H](O[C@H]3[C@@H](O)C[C@H](OC4CCC5(C)C(CCC6C5CCC5(C)C(C7=CC(=O)OC7)CCC65O)C4)O[C@@H]3C)O[C@@H]2C)O[C@H](C)[C@H]1O[C@@H]1O[C@H](CO)[C@@H](O)[C@H](O)[C@H]1O (stereo not given in full)
IC50: > 20 µM | IC50 (read-out: pIC50 (converted)): > 20 µM

Cc1cc(O)ccc1Cl [CHLOROCRESOL]
IC50: > 20 µM | IC50 (read-out: pIC50 (converted)): > 20 µM

CC(N)C12CC3CC(CC(C3)C1)C2 (stereo not given) [RIMANTADINE]
IC50: > 20 µM | IC50 (read-out: pIC50 (converted)): > 20 µM

CCCCC[C@H](O)/C=C/[C@@H]1[C@@H](C/C=C\CCCC(=O)O)[C@@H](O)C[C@H]1O [DINOPROST]
IC50: > 20 µM | IC50 (read-out: pIC50 (converted)): > 20 µM

O=C(COc1ccc(Cl)cc1)N1CCN(Cc2ccc3c(c2)OCO3)CC1 [FIPEXIDE]
IC50: > 20 µM | IC50 (read-out: pIC50 (converted)): > 20 µM

COc1cc([C@@H]2Oc3cc([C@H]4Oc5cc(O)cc(O)c5C(=O)[C@@H]4O)ccc3O[C@H]2CO)ccc1O [SILYBIN B]
IC50: > 20 µM | IC50 (read-out: pIC50 (converted)): > 20 µM

O=[N+]([O-])c1cncn1CCN1CCOCC1 [NIMORAZOLE]
IC50: > 20 µM | IC50 (read-out: pIC50 (converted)): > 20 µM

Cc1cc(C)c(Nc2ccnc(Nc3ccc(C#N)cc3)n2)c(C)c1 [DAPIVIRINE]
IC50: > 20 µM | IC50 (read-out: pIC50 (converted)): > 20 µM

CC(=O)NCCCCCC(=O)O [ACEXAMIC ACID]
IC50: > 20 µM | IC50 (read-out: pIC50 (converted)): > 20 µM

C#C[C@]1(OC(C)=O)CC[C@H]2[C@@H]3CCC4=CC(=O)CC[C@@H]4[C@H]3CC[C@@]21C [NORETHINDRONE ACETATE]
IC50: > 20 µM | IC50 (read-out: pIC50 (converted)): > 20 µM

CCN(CC)CC(=O)Nc1c(C)cc(C)cc1C [TRIMECAINE]
IC50: > 20 µM | IC50 (read-out: pIC50 (converted)): > 20 µM

C(#CCN1CCCC1)CN1CCCC1
IC50: > 20 µM | IC50 (read-out: pIC50 (converted)): > 20 µM

Clc1ccc(CSC(Cn2ccnc2)c2ccc(Cl)cc2Cl)cc1 (stereo not given) [SULCONAZOLE]
IC50: > 20 µM | IC50 (read-out: pIC50 (converted)): > 20 µM

COc1ccc(CCN(C)CCCC(C#N)(c2cc(OC)c(OC)c(OC)c2)C(C)C)cc1OC (stereo not given) [GALLOPAMIL]
IC50: > 20 µM | IC50 (read-out: pIC50 (converted)): > 20 µM

N[C@@H](CCC(=O)N[C@@H](Cc1c[nH]c2ccccc12)C(=O)O)C(=O)O
IC50: > 20 µM | IC50 (read-out: pIC50 (converted)): > 20 µM

CC(=O)S[C@@H]1CC2=CC(=O)CCC2(C)C2CCC3(C)C(CC[C@@]34CCC(=O)O4)C21 (stereo not given in full)
IC50: > 20 µM | IC50 (read-out: pIC50 (converted)): > 20 µM

CC(C)[C@@]1(NC(=O)[C@@H]2C[C@@H]3c4cccc5[nH]cc(c45)C[C@H]3N(C)C2)O[C@@]2(O)[C@@H]3CCCN3C(=O)[C@H](C)N2C1=O
IC50: > 20 µM | IC50 (read-out: pIC50 (converted)): > 20 µM

CC1(COc2ccc3c(c2)ncn3-c2ccc3cccc(N4CCC(N)CC4)c3n2)COC1 [CRENOLANIB]
IC50: > 20 µM | IC50 (read-out: pIC50 (converted)): > 20 µM

CNCC(O)c1cccc(NS(C)(=O)=O)c1 (stereo not given) [AMIDEPHRINE MESYLATE]
IC50: > 20 µM | IC50 (read-out: pIC50 (converted)): > 20 µM

CCOC(=O)C(CCN1CCOCC1)(c1ccccc1)c1ccccc1 [DIOXAPHETYL BUTYRATE]
IC50: > 20 µM | IC50 (read-out: pIC50 (converted)): > 20 µM

CC(C)N(CCC(C(N)=O)(c1ccccc1)c1ccccn1)C(C)C (stereo not given) [DISOPYRAMIDE]
IC50: > 20 µM | IC50 (read-out: pIC50 (converted)): > 20 µM

CC(=O)Nc1ccc(C(=O)O)cc1 [ACEDOBEN]
IC50: > 20 µM | IC50 (read-out: pIC50 (converted)): > 20 µM

OC[C@@H](O)[C@@H](O[C@@H]1O[C@H](CO)[C@H](O)[C@H](O)[C@H]1O)[C@H](O)[C@@H](O)CO [LACTITOL]
IC50: > 20 µM | IC50 (read-out: pIC50 (converted)): > 20 µM

CC(=O)OCC[N+](C)(C)C [ACETYLCHOLINE]
IC50: > 20 µM | IC50 (read-out: pIC50 (converted)): > 20 µM
